Measurements: patent US9815796B2 (Merck Sharp & Dohme Corp., priority 2013, dated 2017)

Target: Rhesus PDE2A3 (Macaca mulatta, UniProt B3VTJ2)
Test: PDE2 fluorescence polarization (IMAP FP) inhibition assay, rhesus enzyme
Type: biochemical, rhesus macaque
Conditions: Rhesus PDE2, Lab A, at 1 uM
Procedure: The activity of the compounds in accordance with the present invention as PDE2 inhibitors may be readily determined using a fluorescence polarization (FP) methodology (Huang, W., et al., J. Biomol Screen, 2002, 7: 215).
In a typical experiment the PDE2 inhibitory activity of the compounds of the present invention was determined in accordance with the following experimental method. Rhesus PDE2A3 was amplified from rhesus macaque brain cDNA (Biochain Institute, Hayward, Calif.) using primers based on human PDE2A sequence (accession NM_002599.3) where the forward primer containing a Kozak consensus was 5′-[…]-3′ and the reverse primer was 5′-[…]-3′. Amplification with Easy-A High-Fidelity PCR cloning enzyme (Stratagene, La Jolla, Calif.) was 95° C. for 2 minutes followed by thirty three cycles of 95° C. for 40 seconds, 52° C. for 30 seconds, and 72° C. for 2 minutes 48 seconds. Final extension was 72° C. for 7 minutes. The PCR product was TA cloned into pcDNA3.3-TOPO (Invitrogen, Carlsbad, Calif.) according to standard protocol. A consensus sequence was developed from multiple clones and then deposited into GenBank (EU812167). AD293 cells (Stratagene, La Jolla, Calif.) with 70-80% confluency were transiently transfected with rhesus PDE2A3/pcDNA3.3-TOPO using Lipofectamine 2000 according to manufacturer specifications (Invitrogen, Carlsbad, Calif.). Cells were harvested 48 hours post-transfection and lysed by sonication (setting 3, 10×5 sec pulses) in a buffer containing 20 mM HEPES pH 7.4, 1 mM EDTA and Complete Protease Inhibitor Cocktail Tablets (Roche, Indianapolis, Ind.). Lysate was collected by centrifugation at 75,000×g for 20 minutes at 4° C. and supernatant utilized for evaluation of PDE2 activity. The fluorescence polarization assay for cyclic nucleotide phosphodiesterases was performed using an IMAP® FP kit supplied by Molecular Devices, Sunnyvale, Calif. (product # R8139). […] Assays were performed at room temperature in 384-well microtiter plates with an incubation volume of 20.2 μL. Solutions of test compounds were prepared in DMSO and serially diluted with DMSO to yield 8 μL of each of 10 solutions differing by 3-fold in concentration, at 32 serial dilutions per plate. […] 0% of inhibition is determined by using DMSO (1% final concentrations).
A Labcyte Echo 555 (Labcyte, Sunnyvale, Calif.) is used to dispense 200 nL from each well of the titration plate to the 384 well assay plate. Ten microliters of a solution of enzyme (1/2000 final dilution from aliquots; sufficient to produce 20% substrate conversion) was added to the assay plate. Next 10 uL of a separate solution of the substrate FAM-labeled cAMP (50 nM final concentration product # R7506 from Molecular Devices) and the activator cGMP (1 uM final concentration), prepared in the assay buffer (10 mM Tris HCl, pH 7.2, 10 mM MgCl2, 0.05% NaN3 0.01% Tween-20, and 1 mM DTT) was added to the assay plate and shaken to mix. The reaction is allowed to proceed at room temperature for 60 minutes. A binding solution is then made from the kit components, comprised of 80% Solution A, 20% Solution B and binding reagent at a volume of 1/600 the total binding solution. The enzymatic reaction is stopped by addition of 60 μL of the binding solution to each well of the assay plates and the plates are sealed and shaken for 30 seconds. The plate was incubated at room temperature for at least one hour prior to determining the fluorescence polarization (FP). The parallel and perpendicular fluorescence of each well of the plate was measured using a Tecan Genios Pro plate reader (Tecan, Switzerland) or Perkin Elmer EnVision™ plate reader (Waltham, Mass.). Fluorescence polarization (mP) was calculated from the parallel (S) and perpendicular (P) fluorescence of each sample well and the analogous values for the median control well, containing only substrate (So and Po), using the following equation: Polarization (mP)=1000*(S/So−P/Po)/(S/So+P/Po).

Rhesus PDE2A3, sequence (B3VTJ2 1-941): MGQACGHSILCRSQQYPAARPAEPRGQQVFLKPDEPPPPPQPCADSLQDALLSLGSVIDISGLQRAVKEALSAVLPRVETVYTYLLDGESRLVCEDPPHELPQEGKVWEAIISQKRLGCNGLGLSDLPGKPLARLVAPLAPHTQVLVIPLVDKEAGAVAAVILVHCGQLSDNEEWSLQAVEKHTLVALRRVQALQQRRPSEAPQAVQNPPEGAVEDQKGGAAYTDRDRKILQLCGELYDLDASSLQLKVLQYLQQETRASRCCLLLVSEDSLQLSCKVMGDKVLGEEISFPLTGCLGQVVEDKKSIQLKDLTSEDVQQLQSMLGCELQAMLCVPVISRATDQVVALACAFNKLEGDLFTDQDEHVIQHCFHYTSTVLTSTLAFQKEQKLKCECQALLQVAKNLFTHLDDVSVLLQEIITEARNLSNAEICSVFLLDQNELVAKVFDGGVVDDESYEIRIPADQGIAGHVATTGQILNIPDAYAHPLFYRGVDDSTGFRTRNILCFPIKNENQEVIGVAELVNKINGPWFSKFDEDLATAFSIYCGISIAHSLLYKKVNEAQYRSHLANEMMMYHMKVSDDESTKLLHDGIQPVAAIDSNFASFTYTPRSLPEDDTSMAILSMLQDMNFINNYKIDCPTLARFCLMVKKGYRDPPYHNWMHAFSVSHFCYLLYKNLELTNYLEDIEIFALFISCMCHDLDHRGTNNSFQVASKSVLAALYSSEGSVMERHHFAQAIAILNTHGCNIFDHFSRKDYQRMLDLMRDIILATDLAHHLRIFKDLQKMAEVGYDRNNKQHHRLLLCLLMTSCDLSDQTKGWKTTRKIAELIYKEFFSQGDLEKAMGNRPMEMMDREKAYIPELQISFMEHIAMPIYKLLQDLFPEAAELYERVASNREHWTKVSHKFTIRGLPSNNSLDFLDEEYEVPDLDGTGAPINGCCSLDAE

SMILES | Rhesus PDE2 % inh. at 1 uM - Lab A
C[C@@H](NC(=O)c1cc(=O)[nH]c(-c2ccccc2)n1)c1ccc(C(F)(F)F)c2ccccc12 [Example 153] | 41 % inh.

Same assay, conditions: Rhesus PDE2, Lab A; read-out: Rhesus PDE2 Ki (nM) - Lab A

SMILES | Ki
COc1cc(CN(C)C(=O)c2cc(=O)[nH]c(C)n2)cc(OC)c1OC [Example 14, N,2-dimethyl-6-oxo-N-(3,4,5-trimethoxybenzyl)-1,6-dihydropyrimidine-4-carboxamide] | 1860 nM
CC(NC(=O)c1cc(=O)[nH]c(-c2ccccc2)n1)c1ccc(C#N)cc1 (stereo not drawn) [Example 370, N-[1-(4-cyanophenyl)ethyl]-6-oxo-2-phenyl-1,6-dihydropyrimidine-4-carboxamide] | 334 nM
Cc1cc(C(F)(F)F)ccc1C(C)NC(=O)c1cc(=O)[nH]c(C2CC2)n1 (stereo not drawn) [Example 208] | 291 nM
C[C@@H](NC(=O)c1cc(=O)[nH]c(-c2ccccc2)n1)c1cccc(C(F)(F)F)c1 [Example 168, 6-oxo-2-phenyl-N-{(1R)-1-[3-(trifluoromethyl)phenyl]ethyl}-1,6-dihydropyrimidine-4-carboxamide] | 467 nM
Cc1nc(C(=O)NC(C)c2ccc(C(C)C)cc2)cc(=O)[nH]1 (single isomer, unassigned) [Example 306, (S)- or (R)-2-methyl-N-{1-[4-(1-methylethyl)phenyl]ethyl}-6-oxo-1,6-dihydropyrimidine-4-carboxamide] | 2380 nM
COc1cc(C(F)(F)F)ccc1[C@@H](C)NC(=O)c1cc(=O)[nH]c(-c2ncccn2)n1 [Example 109, N-{(1R)-1-[2-methoxy-4-(trifluoromethyl)phenyl]ethyl}-6-oxo-1,6-dihydro-2,2′-bipyrimidine-4-carboxamide] | 342 nM
Cc1nc(C(=O)N[C@H](C)c2ccc(C(F)(F)F)c3ccccc23)cc(=O)[nH]1 [Example 28, 2-methyl-6-oxo-N-{(1R)-1-[4-(trifluoromethyl)naphthalen-1-yl]ethyl}-1,6-dihydropyrimidine-4-carboxamide] | 3490 nM
Cc1nc(C(=O)N[C@H](c2ccc(C(F)(F)F)cc2)C(C)C)cc(=O)[nH]1 [Example 315, 2-methyl-N-{(1S)-2-methyl-1-[4-(trifluoromethyl)phenyl]propyl}-6-oxo-1,6-dihydropyrimidine-4-carboxamide] | 698 nM
CC(NC(=O)c1cc(=O)[nH]c(C2CC2)n1)c1ccc(C(F)(F)F)cn1 (stereo not drawn) [Example 238, 2-cyclopropyl-6-oxo-N-{1-[5-(trifluoromethyl)pyridin-2-yl]ethyl}-1,6-dihydropyrimidine-4-carboxamide] | 683 nM
CC[C@@H](NC(=O)c1cc(=O)[nH]c(-c2ncccn2)n1)c1ccc(SC(F)(F)F)cc1 [Example 100, 6-oxo-N-[(1R)-1-{4-[(trifluoromethyl)sulfanyl]phenyl]propyl]-1,6-dihydro-2,2′-bipyrimidine-4-carboxamide] | 2.6 nM
Cc1nc(C(=O)N[C@@H](C)c2cccc3ccccc23)cc(=O)[nH]1 [Example 302, 2-methyl-N-[(3S)-1-naphthalen-1-ylethyl]-6-oxo-1,6-dihydropyrimidine-4-carboxamide] | 51400 nM
C[C@@H](NC(=O)c1cc(=O)[nH]c(C2CC2)n1)c1ccc(C(F)(F)F)c2ccccc12 [Example 235, 2-cyclopropyl-6-oxo-N-{(1R)-1-[4-(trifluoromethyl)naphthalen-1-yl]ethyl}-1,6-dihydropyrimidine-4-carboxamide] | 274 nM
C[C@@H](NC(=O)c1cc(=O)[nH]c(-c2ccccc2)n1)c1ccc(C(F)(F)F)c2ccccc12 [Example 153] | > 1000 nM
COc1cc(C(C)NC(=O)c2cc(=O)[nH]c(C3CC3)n2)ccc1C(F)(F)F (stereo not drawn) [Example 226, 2-cyclopropyl-N-{1-[3-methoxy-4-(trifluoromethyl)phenyl]ethyl}-6-oxo-1,6-dihydropyrimidine-4-carboxamide] | 505 nM

Same assay, conditions: Rhesus PDE2, Lab B; read-out: Rhesus PDE2 Ki (nM) - Lab B

SMILES | Ki
Cc1nc(C(=O)NC(C)c2ccc(C(C)(C)C(F)(F)F)cc2)cc(=O)[nH]1 (single isomer, unassigned) [Example 695, (R)- or (S)-2-methyl-6-oxo-N-(1-(4-(1,1,1-trifluoro-2-methylpropan-2-yl)phenyl)ethyl)-1,6-dihydropyrimidine-4-carboxamide] | 473 nM
CCOC(=O)c1ccc([C@@H](C)NC(=O)c2cc(=O)[nH]c(-c3ccccc3)n2)cc1 [Example 355, ethyl 4-[(1R)-1-{[(6-oxo-2-phenyl-1,6-dihydropyrimidin-4-yl)carbonyl]amino}ethyl]benzoate] | ~29200 nM
CC(NC(=O)c1cc(=O)[nH]c(-c2ccccc2)n1)c1cccc(-c2ccccc2)c1 (stereo not drawn) [Example 410, N-(1-biphenyl-3-ylethyl)-6-oxo-2-phenyl-1,6-dihydropyrimidine-4-carboxamide] | 1960 nM
CC(NC(=O)c1cc(=O)[nH]c(-c2ccccc2)n1)c1ccc(C#N)cc1 (stereo not drawn) [Example 370, N-[1-(4-cyanophenyl)ethyl]-6-oxo-2-phenyl-1,6-dihydropyrimidine-4-carboxamide] | 533 nM
COc1ccc(C(C)(C)c2nc(C(=O)N[C@@H](c3ccc(C(F)(F)F)c(F)c3)C3CC3)cc(=O)[nH]2)cc1 [Example 499, N-{(R)-cyclopropyl[3-fluoro-4-(trifluoromethyl)phenyl]methyl}-2-[1-(4-methoxyphenyl)-1-methylethyl]-6-oxo-1,6-dihydropyrimidine-4-carboxamide] | 115 nM
COc1ccc(C(C)(C)NC(=O)c2cc(=O)[nH]c(-c3ccccc3)n2)cc1 [Example 460, N-[1-(4-methoxyphenyl)-1-methylethyl]-6-oxo-2-phenyl-1,6-dihydropyrimidine-4-carboxamide] | 371 nM
CC[C@@H](NC(=O)c1cc(=O)[nH]c(C(C)(C)c2ccc(OC)cc2)n1)c1ccc(C(F)(F)F)c(F)c1 [Example 503, N-{(1R)-1-[3-fluoro-4-(trifluoromethyl)phenyl]propyl}-2-[1-(4-methoxyphenyl)-1-methylethyl]-6-oxo-1,6-dihydropyrimidine-4-carboxamide] | 111 nM
CC(C)(NC(=O)c1cc(=O)[nH]c(-c2ccccc2)n1)c1ccccc1 [Example 390, N-(1-methyl-1-phenylethyl)-6-oxo-2-phenyl-1,6-dihydropyrimidine-4-carboxamide] | 1700 nM
CC(C)c1ccc(CNC(=O)c2cc(=O)[nH]c(-c3ccccc3)n2)cc1 [Example 414, N-[4-(1-methylethyl)benzyl]-6-oxo-2-phenyl-1,6-dihydropyrimidine-4-carboxamide] | 136 nM
C[C@@H](NC(=O)c1cc(=O)[nH]c(-c2ccccc2)n1)c1ccc([N+](=O)[O-])cc1 [Example 459, N-[(1R)-1-(4-nitrophenyl)ethyl]-6-oxo-2-phenyl-1,6-dihydropyrimidine-4-carboxamide] | 224 nM
CC(NC(=O)c1cc(=O)[nH]c(-c2ccccc2)n1)c1ccc(S(C)(=O)=O)cc1 (stereo not drawn) [Example 382, N-{1-[4-(methylsulfonyl)phenyl]ethyl}-6-oxo-2-phenyl-1,6-dihydropyrimidine-4-carboxamide] | 3120 nM
Cc1ccc([C@H](C)NC(=O)c2cc(=O)[nH]c(-c3ccccc3)n2)cc1 [Example 364, N-[(1S)-1-(4-methylphenyl)ethyl]-6-oxo-2-phenyl-1,6-dihydropyrimidine-4-carboxamide] | 3950 nM
CC1(C(NC(=O)c2cc(=O)[nH]c(-c3ccccc3)n2)c2ccc(SC(F)(F)F)c(F)c2)CC1 (single isomer, unassigned) [Example 706, (S)- or (R)-N-((3-fluoro-4-((trifluoromethyl)thio)phenyl)(1-methylcyclopropyl)methyl)-6-oxo-2-phenyl-1,6-dihydropyrimidine-4-carboxamide] | > 2970 nM
COc1ccc([C@H](C)NC(=O)c2cc(=O)[nH]c(-c3ccccc3)n2)cc1 [Example 357, N-[(1S)-1-(4-methoxyphenyl)ethyl]-6-oxo-2-phenyl-1,6-dihydropyrimidine-4-carboxamide] | ~11300 nM
C[C@@H](NC(=O)c1cc(=O)[nH]c(-c2ccccc2)n1)c1ccc(C(F)(F)F)c2ccccc12 [Example 153] | ~1970 nM
